This note sets out measurements from patent EP0197829A1, “5H-pyrido[3',4':4,5]pyrrolo[3,2-c]pyridine derivatives, process for their preparation and their antitunour activity” (SANOFI, priority 1985, dated 1986).

A short description of series [1]: in vivo. Further details: species or system souris. To be noted: mouse, ip, 100 mg/kg. The procedure:
Ainsi, l'administration à des souris hybrides CDF1 saines, en une injection unique par la voie intrapéritonéale, de doses croissantes des composés à tester (5 mg, 10 mg, 20 mg, 40 mg/kg) a permis de constater que, à ces doses, les produits étaient parfaitement tolérés puisque le taux de survivants était de 100 p. 100.
Dans les mêmes conditions, administrés à des souris BDF1 saines, les taux de survivants étaient de 100 p. 100 jusqu'à 100 mg/kg pour les dérivés 1, 3 et 9 et jusqu'à 200 mg/kg pour les dérivés 2 et 8.

Series [2] relates to mélanome B 16. As to the kind of experiment: B 16 melanoma test in vivo. Details: species or system souris hybrides BDF1; Jour médian de survie: unit not given here. The note with it: for Survivants: at day J 60. An excerpt: L'activité antitumorale a été testée in vivo sur différentes tumeurs selon le protocole général suivant : Toutes les souris mâles ou femelles sont inoculées par voie intrapéritonéale au jour Jo avec une quantité déterminée de cellules tumorales viables, variable selon la tumeur.
Elles sont ensuite réparties en différents lots. Chaque lot correspondant aux animaux traités par le produit à tester à une dose déterminée est composé de lO souris. Dans ce cas, le produit à tester est dissous dans l'eau distillée et il est administré, pendant n jours (J1-Jn) variables selon le protocole choisi, par voie intrapéritonéale à raison de 0,1 ml par lO g de poids des souris traitées, les doses du produit administré étant précisées dans les tableaux ci-dessous.
Le lot "Contrôle négatif", correspondant aux animaux qui ne sont pas traités par un produit, comprend 2 √N animaux, N étant égal au nombre total de souris traitées par un produit.
Enfin, tous lés essais sont conduits parallèlement à l'étude d'un lot appelé "Contrôle positif" de 10 animaux qui est traité par une molécule active, variable selon le protocole choisi, dans les mêmes conditions que les lots traités par le produit à tester, afin de valider l'essai.
L'activité antitumorale est évaluée en considérant l'augmentation du temps de survie des animaux traités par rapport à celui des animaux du lot "Contrôle négatif" selon la formule : • Jour médian de survie des animaux traités à une T/C = dose donnée de produit x 100 • Jour médian de survie des animaux "Contrôle négatif"
Un composé est considéré comme étant actif lorsque la valeur du rapport T/C est égale ou supérieure à 125 % selon le protocole retenu. Il est toxique lorsque cette valeur est égale ou inférieure à 85 %. Le produit est également considéré comme toxique lorsque la variation pondérale, exprimée en grammes et calculée par la formule : Poids moyen du lot mesuré au jour 5 - poids moyen du même lot au jour 1, est égale ou inférieure à -4g . a) Test de la leucémie P 388 (GERAN et al., Cancer Chemother, 1972, 2, 07-57).
c) Test du mélanome B 16 (GERAN et al., Cancer Chemother, 1972, 2, 07-57).
Les essais sont effectués avec des souris hybrides BDF1 inoculées avec O,5 ml d'un homogénat de mélanome B 16 réalisé à partir de 1 g de tumeur dans 10 ml de sérum physiologique. Le composé à tester est administré pendant 9 jours (J1-J9). Le contrôle positif du test est le Cis- platine administré dans les mêmes conditions. Le nombre d'animaux survivants est évalué au jour J 60. Un composé est considéré comme étant actif lorsque le rapport T/C est supérieur ou égal à 125 %.

The test system of series [3] is lignée tumorale leucémie L 1210. As to the kind of experiment: In vitro cytotoxicity on L 1210 leukemia cell culture. Format: cell-based. To be noted: Mus musculus, L1210; concentration inhibiting cell proliferation by 50 p. 100, after 48 h contact; read-out: ID 50 (the source's name). The method, then: 1) In vitro : (PAOLETTI et al., Chem. Biol. Interaction, 1979, 25, 45-58).
L'activité cytotoxique des composés de l'invention a été évaluée par des essais in vitro. Ces essais consistent à ajouter des concentrations croissantes du composé à tester à une culture cellulaire de la lignée tumorale leucémie L 1210 en phase exponentielle de croissance. Les cellules sont incubées à 37°C dans une étuve à C02 et comptées toutes les 24 heures. Le calcul de l'ID 50 (concentration du produit exprimée en micromole 1^-1 qui inhibe la prolifération cellulaire à 50 p. 100) est effectué après 48 heures de contact. Ainsi déterminées, les ID 50 des composés de l'invention sont rassemblées dans le tableau I ci-après : […]

In the case of `Cc1cnc(NCCCN(C)C)c2c1[nH]c1ccncc12` [Dérivé N° 3, [(diméthylamino-3 propyl-1)amino]-1 méthyl-4 5-H pyrido[3',4':4,5]pyrrolo[3,2-c]pyridine], the survival in series [1] is 100%. Also, in series [2] (5 mg/kg i.p. J1-J9), the “Jour médian de survie” value is listed as 29, the T/C % amounted to 125% and the Survivants was 0. In series [2] (20 mg/kg i.p. J1-J9), the “Jour médian de survie” value is reported as 29,3, the T/C % is 126% and the Survivants was 0. In series [2] (40 mg/kg i.p. J1-J9), the “Jour médian de survie” value is reported as 9,8, the T/C % is 42% and the Survivants is listed as 0.

On to `CCN(CC)CCCNc1ncc(C)c2c1c1cnccc1n2C` [Dérivé N° 4, [(diéthylamino-3 propyl-1)amino]-1 diméthyl-4,5 5-H pyrido[3',4':4,5]pyrrolo[3,2-c]pyridine], for which the IC50 in series [3] came out at 130 nM. Moreover, the “Jour médian de survie” value in series [2] (20 mg/kg i.p. J1-J9) was 28; in series [2] (30 mg/kg i.p. J1-J9), 43,0; in series [2] (40 mg/kg i.p. J1-J9), 53,0; in series [2] (50 mg/kg i.p. J1-J9), 39,0; in series [2] (60 mg/kg i.p. J1-J9), 24,0. For the same compound, the T/C % in series [2] (20 mg/kg i.p. J1-J9) is recorded as 99%; in series [2] (30 mg/kg i.p. J1-J9), 152%; in series [2] (40 mg/kg i.p. J1-J9), 188%; in series [2] (50 mg/kg i.p. J1-J9), 138%; in series [2] (60 mg/kg i.p. J1-J9), 85%. The Survivants turned out to be 0 in series [2] (20 mg/kg i.p. J1-J9); 4 in series [2] (30 mg/kg i.p. J1-J9); 5 in series [2] (40 mg/kg i.p. J1-J9); 0 in series [2] (50 mg/kg i.p. J1-J9); 0 in series [2] (60 mg/kg i.p. J1-J9).
